The source of these data is patent US8445493B2, “Tetrasubstituted pyridazines hedgehog pathway antagonists” (Eli Lilly and Company, priority 2008, dated 2013).

Structures can show the parent of a compound that is named as a salt.

The experiment has as its system Gli1 transcript in Shh-stimulated Daoy cells. The experiment can be described thus: Functional assay for measuring the inhibition of Gli1 in Daoy cells (bDNA assay). The experiment is classed as cell-based. To be noted: Homo sapiens; Daoy cells stimulated with Shh conditioned media, 24 hours incubation with compound, Gli1 transcript by bDNA luminescence. Here is the method:
Biological activity is determined using a functional assay in Daoy neuronal cancer cells and measures levels of Gli1 ribonucleic acid via a bDNA (branched deoxyribonucleic acid) assay system (Panomics, Inc., Fremont, Calif.). Gli was originally discovered in a Glioblastoma cell line and encodes a zinc finger protein that is activated by Shh signaling. The maximum response is obtained by inducing Gli1 transcription in the Daoy cells with conditioned medium (human embryonic kidney, HEK-293 cells stably expressing recombinant Shh) for 24 hours and then measuring the amount of stimulated Gli1 transcript. […]
The bDNA assay system utilizes the technology of branched-chain DNA to allow amplification of a target ribonucleic acid (transcript). […] The addition of a chemilumigenic substrate during the amplification step allows for detection using luminescence. […]
Daoy cells are grown to confluency in tissue culture T225-flasks in Daoy growth media containing Minimum Essential Medium (MEM) plus 10% Fetal Bovine Serum (FBS) with […] non-essential amino acids and 1 mM sodium pyruvate. The cells are removed from the T225-flasks using trypsin ethylenediaminetetraacetic acid (EDTA), centrifuged, resuspended in media, and then counted. […]

Take `Cc1c(-c2ccccc2)nnc(N2CCN(C(=O)NC3CCC(F)(F)CC3)[C@@H](C)C2)c1C` [Example 1, (S)—N-(4,4-Difluorocyclohexyl)-4-(4,5-dimethyl-6-phenylpyridazin-3-yl)-2-methylpiperazine-1-carboxamide hydrochloride]: the half-maximal inhibitory concentration (IC50) – broadly, the concentration that inhibits the measured activity by half – was roughly 1.26 nM.
